Results from patent US20030186978A1, “Novel telomerase inhibitors” (priority 2000, published 2003).

Target: telomerase enzyme (Homo sapiens, UniProt O14746)
Assay: Flash Plate-based telomerase assay
Assay type: biochemical
Conditions: two hours of incubation at 37°; only indicative, obtained during screening by fitting a limited number of experimental points
Description: The telomerase activity of the compounds of the invention has been evaluated using a Flash Plate-based assay. […] Other methods for determining the inhibitory concentration of a compound of the invention against telomerase can be employed as will be apparent to a person skilled in the art based on the disclosure herein.
Briefly, the assay mixture is costituted by:
telomerase enzyme diluted in a buffer, the composition of which has been selected to maintain the enzyme activity stable along the duration of the assay.
dNTPs, deoxynucleotides 5′-triphosphate.
biotynilated oligo as primer.
increasing concentrations of test compounds/positive control.
After two hours of incubation at 37° degrees the telomeric repeats added are evaluated by hybridization in solution with a 3′-labeled short oligonucleotide probe. The extent of hybridization is then quantitated by transferring the reaction mixture in a streptavidin-coated flash plate, where the binding between biotin and streptavidin occurs. The telomerase activity is proportional to the radioactivity measured and the inhibitory activity of the compounds is evaluated as IC50 using the Sigma Plot fit program. With the above-described method, IC50 values of the compounds of the present invention were determined. The data reported in Table 1 are only indicative since obtained during the screening by fitting a limited number of experimental points.

telomerase enzyme, sequence (O14746 whole entry): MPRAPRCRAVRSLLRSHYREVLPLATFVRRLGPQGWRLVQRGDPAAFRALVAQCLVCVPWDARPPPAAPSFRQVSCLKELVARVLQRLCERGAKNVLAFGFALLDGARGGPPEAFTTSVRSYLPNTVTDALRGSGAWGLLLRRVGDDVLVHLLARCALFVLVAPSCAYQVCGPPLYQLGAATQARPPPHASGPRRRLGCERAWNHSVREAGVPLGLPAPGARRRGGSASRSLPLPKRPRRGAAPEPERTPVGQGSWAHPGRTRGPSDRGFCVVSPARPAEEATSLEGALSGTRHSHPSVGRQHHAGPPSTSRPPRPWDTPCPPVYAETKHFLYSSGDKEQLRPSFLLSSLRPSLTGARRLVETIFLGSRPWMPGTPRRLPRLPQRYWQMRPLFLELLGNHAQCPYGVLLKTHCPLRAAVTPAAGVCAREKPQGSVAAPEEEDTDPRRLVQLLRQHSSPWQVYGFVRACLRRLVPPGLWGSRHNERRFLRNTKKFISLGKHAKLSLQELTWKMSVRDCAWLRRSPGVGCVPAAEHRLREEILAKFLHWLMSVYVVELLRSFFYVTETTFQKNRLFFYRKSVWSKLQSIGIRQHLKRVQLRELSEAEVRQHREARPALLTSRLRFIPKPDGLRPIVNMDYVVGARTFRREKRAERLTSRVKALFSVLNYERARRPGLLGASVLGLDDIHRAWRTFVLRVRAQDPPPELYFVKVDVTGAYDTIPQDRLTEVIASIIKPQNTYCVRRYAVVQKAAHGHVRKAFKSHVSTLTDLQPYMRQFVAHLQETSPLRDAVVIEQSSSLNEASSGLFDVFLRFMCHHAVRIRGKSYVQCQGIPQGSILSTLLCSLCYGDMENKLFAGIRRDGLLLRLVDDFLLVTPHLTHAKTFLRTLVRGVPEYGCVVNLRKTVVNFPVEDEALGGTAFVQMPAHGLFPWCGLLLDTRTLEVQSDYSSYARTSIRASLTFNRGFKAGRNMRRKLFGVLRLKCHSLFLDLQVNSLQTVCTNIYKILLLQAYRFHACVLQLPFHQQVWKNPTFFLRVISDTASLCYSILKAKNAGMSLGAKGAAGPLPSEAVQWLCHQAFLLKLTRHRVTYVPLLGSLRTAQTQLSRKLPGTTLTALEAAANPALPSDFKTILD

Row | Structure (SMILES) | IC50 [µM]
1 | Nc1nc(=O)c2c(ncn2Cc2ccc(Cl)c(Cl)c2)n1Cc1ccc(Cl)c(Cl)c1 [Compound 4, 2-amino-3,7-bis(3,4-dichlorobenzyl)-3,7-dihydro-6H-purin-6-one] | 4
2 | Nc1nc(=O)c2c(ncn2Cc2ccc(-c3ccc(CCl)cc3)cc2)n1Cc1ccc(-c2ccc(CCl)cc2)cc1 [Compound 3, 2-amino-3,7-bis{[4′-(chloromethyl)[1,1′-biphenyl]-4-yl]methyl}-3,7-dihydro-6H-purin-6-one] | 5
3 | Nc1nc(=O)c2c(ncn2Cc2ccc3ccccc3c2)n1Cc1ccc(-c2ccccc2)cc1 [Compound 5, 2-amino-3-([1,1-biphenyl]-4-ylmethyl)-7-(2-naphthylmethyl)-3,7-dihydro-6H-purin-6-one] | 2
4 | Nc1nc(=O)c2c(ncn2Cc2ccc3ccccc3c2)n1Cc1ccc2ccccc2c1 [Compound 1, 2-amino-3,7-bis(2-naphthylmethyl)-3,7-dihydro-6H-purin-6-one] | 4
5 | Nc1nc(=O)c2c(ncn2Cc2ccc(-c3ccccc3)cc2)n1Cc1ccc(-c2ccccc2)cc1 [Compound 2, 2-amino-3,7-bis-[(1,1′-biphenyl)-4-ylmethyl]-3,7-dihydro-6H-purin-6-one] | 3

Results, then the compound that gave them:

Row | IC50 [µM] | Structure (SMILES)
6 | 2 | Nc1nc(=O)c2c(ncn2Cc2ccc(-c3ccccc3)cc2)n1Cc1ccc2ccccc2c1 [Compound 6, 2-amino-3-(2-naphthylmethyl)-7-([1,1′-biphenyl]-4-ylmethyl)-3,7-dihydro-6H-purin-6-one]
7 | 21 | COC(=O)c1cccc(Cn2c(N)nc(=O)c3c2ncn3Cc2ccc3ccccc3c2)c1 [Compound 29, Methyl 3-{[2-amino-7-(2-naphthylmethyl)-6-oxo-6,7-dihydro-3H-purin-3-yl]methyl}benzoate]
8 | 19 | Nc1nc(=O)c2c(ncn2Cc2ccc3ccccc3c2)n1Cc1ccc(-c2nnn[nH]2)cc1 [Compound 27, 2-amino-7-(2-naphthylmethyl)-3-[4-(1H-tetraazol-5-yl)benzyl]-3,7-dihydro-6H-purin-6-one]
9 | 4 | Nc1nc(=O)c2c(ncn2Cc2ccc3ccccc3c2)n1Cc1ccc2c(c1)C(=O)c1ccccc1C2=O [Compound 19, 2-{[2-amino-7-(2-naphthylmethyl)-6-oxo-6,7-dihydro-3H-purin-3-yl]methyl}anthra-9,10-quinone]
10 | 3 | Nc1nc(=O)c2c(ncn2Cc2ccc3ccccc3c2)n1Cc1cccc(Oc2ccccc2)c1 [Compound 8, 2-amino-3-(3-phenoxybenzyl)-7-(2-naphthylmethyl)-3,7-dihydro-6H-purin-6-one]
11 | 3 | Nc1nc(=O)c2c(ncn2Cc2ccc3ccccc3c2)n1Cc1ccc(Cl)c(Cl)c1 [Compound 7, 2-amino-3 (3,4-dichlorobenzyl)-7-(2-naphthylmethyl)-3,7-dihydro-6H-purin-6-one]
